Source: patent publication US20230174507A1, “IMIDAZOLE 3-OXIDE DERIVATIVE BASED ACSS2 INHIBITORS AND METHODS OF USE THEREOF” (METABOMED LTD., priority 2020, published 2023)

Key:
human ACSS2 protein = target: T1, human ACSS2 protein (Homo sapiens, UniProt Q9NR19); experiment: ACSS2 cell-free activity assay (pyrophosphatase-coupled, Biomol green); conditions: 10 nM human ACSS2, 90 minutes at 37 C, absorbance at 620 nm; read-out: ACSS2 Biochemical IC50
T1 construct: purchased OriGene Technologies, Inc
T1 sequence (Q9NR19 whole entry): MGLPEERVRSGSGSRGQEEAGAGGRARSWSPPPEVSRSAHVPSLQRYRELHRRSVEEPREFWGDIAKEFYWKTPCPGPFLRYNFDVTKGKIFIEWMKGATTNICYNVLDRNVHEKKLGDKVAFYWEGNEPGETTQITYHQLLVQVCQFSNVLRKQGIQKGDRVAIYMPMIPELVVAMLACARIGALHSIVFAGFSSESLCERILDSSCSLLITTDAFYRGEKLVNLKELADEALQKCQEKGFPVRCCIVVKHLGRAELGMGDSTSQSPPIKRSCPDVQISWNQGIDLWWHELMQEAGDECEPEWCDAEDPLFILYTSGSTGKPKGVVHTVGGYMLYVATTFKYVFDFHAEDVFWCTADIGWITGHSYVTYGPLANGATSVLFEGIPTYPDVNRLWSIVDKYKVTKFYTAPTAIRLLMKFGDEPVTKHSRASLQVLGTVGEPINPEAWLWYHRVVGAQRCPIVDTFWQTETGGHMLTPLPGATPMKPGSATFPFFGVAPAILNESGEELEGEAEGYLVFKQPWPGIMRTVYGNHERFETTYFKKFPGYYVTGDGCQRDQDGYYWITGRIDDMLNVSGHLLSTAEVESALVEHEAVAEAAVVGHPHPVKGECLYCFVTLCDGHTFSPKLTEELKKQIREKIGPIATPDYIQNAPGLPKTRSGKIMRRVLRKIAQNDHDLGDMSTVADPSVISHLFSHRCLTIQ
Procedure, shortened: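 10 nM human ACSS2 incubated 90 min at 37 C with compound, 300 μM ATP, 10 μM CoA, 5 mM NaAc in pH 7.5 Hepes buffer with 0.5 U/ml pyrophosphatase. Released phosphate detected with Biomol Green at 620 nm; IC50 by non-linear regression constrained to 0% and 100%.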

human ACSS1 protein = target: T2, human ACSS1 protein (Homo sapiens, UniProt Q9NUB1); experiment: ACSS1 cell-free activity assay (pyrophosphatase-coupled, Biomol green); format: biochemical; conditions: 5 nM human ACSS1, 30 minutes at room temperature, absorbance at 620 nm
T2 construct: purchased MyBioSource
T2 sequence (Q9NUB1 38-689): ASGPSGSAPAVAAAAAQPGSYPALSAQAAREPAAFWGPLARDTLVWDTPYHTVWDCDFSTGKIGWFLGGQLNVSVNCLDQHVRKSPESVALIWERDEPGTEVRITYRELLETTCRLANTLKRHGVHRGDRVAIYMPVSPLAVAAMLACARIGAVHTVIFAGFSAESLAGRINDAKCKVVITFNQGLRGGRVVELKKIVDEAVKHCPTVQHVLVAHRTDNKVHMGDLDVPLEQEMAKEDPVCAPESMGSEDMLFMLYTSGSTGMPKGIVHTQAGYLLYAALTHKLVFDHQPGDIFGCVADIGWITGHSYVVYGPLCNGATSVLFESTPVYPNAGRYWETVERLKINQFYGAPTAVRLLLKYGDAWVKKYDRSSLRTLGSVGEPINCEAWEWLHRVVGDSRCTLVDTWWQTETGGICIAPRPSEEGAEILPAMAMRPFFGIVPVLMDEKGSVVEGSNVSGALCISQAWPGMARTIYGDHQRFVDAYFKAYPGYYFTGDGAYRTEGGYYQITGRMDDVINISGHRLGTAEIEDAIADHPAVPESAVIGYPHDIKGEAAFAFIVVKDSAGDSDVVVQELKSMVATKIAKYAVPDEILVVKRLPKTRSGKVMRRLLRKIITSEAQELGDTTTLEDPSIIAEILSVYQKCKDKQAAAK
Procedure, shortened: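 5 nM human ACSS1 incubated 30 min at RT with compound in pH 7.5 Hepes buffer with 15 μM CoA, 5 mM acetate, 300 μM ATP, 2 mM MgCl2 and pyrophosphatase. Released phosphate detected with Biomol Green (30 min), absorbance 620 nm. IC50 from constrained non-linear regression.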

[1] = target: T3, ACSS2 in MDA-MB-468 cells (Homo sapiens, UniProt Q9NR19); experiment: Cellular fatty-acid IC50: 13C-acetate incorporation into fatty acids (palmitate), LC-MS; format: cell-based; conditions: hypoxic conditions (1% O2), 75% charcoal stripped serum, 5 hours, 13C-acetate into palmitate, read-out: Cellular Fatty-acid IC50 High Serum MDA468
T3 construct: endogenous in cells; host or cells: MDA-MB-468 cells, hypoxia (1% O2)
T3 sequence (Q9NR19 whole entry): as the sequence (Q9NR19 whole entry) above
Procedure: Cellular Fatty-Acid IC50 Determination:
The cellular activity of ACSS2 was measured in MDA-MB-468 cells under hypoxic conditions by tracing the incorporation of labelled carbons from ^13C-acetate into newly synthesized fatty acids. The assay was performed using 75% charcoal stripped serum (high serum conditions).
MDA-MB-468 cells were seeded in 12-well plates (0.35×10^6 cells per well) in plating medium (Dulbecco's Modified Eagle Medium containing 25 mM D-glucose, 1 mM sodium pyruvate, 10% v/v fetal bovine serum, and 2 mM glutamine) and incubated for 24 hours under hypoxic conditions (1% O2).
The next day, tracing medium containing DMEM (01-057-1A) containing 75% charcoal stripped serum (Biological industries 04-201-1A), 3.5 μg/mL Biotin (Sigma-Aldrich B4639), 1 mM Pyruvate, 5.5 mM Glucose, 0.65 mM Glutamine and 0.5 mM ^13C-Acetate (Sigma-Aldrich #282014) with serial dilutions of the compounds in the range of 0.000512-1000 nM were prepared. The plating medium was replaced with 1 mL tracing medium plus compounds and the cells were incubated for 5 hours under hypoxic conditions (1% O2). Plating medium in control wells (without cells or without compounds) was replaced with 1 mL tracing medium containing 0.01% v/v DMSO.
The level of ^13C-acetate incorporation into fatty acids (palmitate) was measured by LC-MS analysis and IC50 as described below:
Sample Preparation for LC-MS
• a) Cells were washed twice with cold phosphate buffered saline (PBS), scraped into 0.5 mL EDTA pH 8.0, and transferred into 1.1 mL V-shaped HPLC glass tubes. • b) The cell suspensions were centrifuged for 5 minutes at 400×g, 4° C. and the supernatants were removed. • c) Cell pellets were frozen at −80° C.
• d) Cell pellets were resuspended in 0.2 mL of 80% v/v ethanol in water containing 0.02 M NaOH in 1.1 ml glass (v-bottom) HPLC vials. • e) The vials were closed tight and incubated at 66° C. for 60 minutes. • f) Acetonitrile containing 2% v/v formic acid (150 μL) was added to each vial and the mixtures were transferred to Eppendorf tubes for centrifugation at 17 000×g for 20 minutes. • g) Supernatants were transferred to LC-MS vials.
The relative palmitate concentration was measured by LC-MS in reconstructed selected ion monitoring (RSIM) mode and negative ion mode. Samples were analyzed on a Phenomenex Kinetex 2.6 μm XB-C18 150×2.1 mm column at 45° C. (0.4 mL/minute flow rate) using: • a) A gradient from 15% A/85% C to 100% C for 0 to 2 minutes (A: water containing 5% v/v acetonitrile, 10 mM ammonium acetate, and 10 mM acetic acid; C: a mixture of 50% v/v acetonitrile and 50% v/v methanol). • b) Isocratic flow (100% C) for 2 to 5 minutes. • c) Equilibration in isocratic conditions (15% A/85% C) for 5 to 8 minutes.
Palmitate was eluted at approximately 3.4 minutes.
The percent inhibition was calculated relative to the sample without compound and after background deduction. IC50 values were calculated using non-linear regression curve fit analysis with 0% and 100% constraints (CDD Vault, Collaborative Drug Discovery, Inc. or GraphPad Prism).
The inhibitory activities of each compound against ACSS2 in MDA-MB-468 cells under high serum conditions, as determined by ^13C-acetate incorporation into fatty acids (palmitate), are presented in Table 2.

SMILES	IC50 (human ACSS2 protein)	ACSS1 Biochemical IC50 (nM) (human ACSS1 protein)	IC50 [1]	IC50 (human ACSS1 protein; read-out: ACSS1 Biochemical IC50)
COc1ccc(-c2[nH]c(C)c(C(=O)Nc3cccc(C(N)=O)c3)[n+]2[O-])cc1-c1c(C)cccc1C [Compound 172, 4-((3-carbamoylphenyl)carbamoyl)-2-(6-methoxy-2′,6′-dimethyl-[1,1′-biphenyl]-3-yl)-5-methyl-1H-imidazole 3-oxide]	< 0.001 µM	Inactive	< 0.02 µM	–
Cc1cccc(C)c1-c1cc(OCCN2CCCC2)cc(-c2[nH]c(C)c(C(=O)Nc3cccc(C(F)(F)C4CC4)c3)[n+]2[O-])c1 [Compound 183, 4-((3-(cyclopropyldifluoromethyl)phenyl)carbamoyl)-2-(2′,6′-dimethyl-5-(2-(pyrrolidin-1-yl)ethoxy)-[1,1′-biphenyl]-3-yl)-5-methyl-1H-imidazole 3-oxide]	< 0.001 µM	Inactive	> 0.05 µM	–
CCC(F)(F)c1cccc(NC(=O)c2c(C)[nH]c(-c3cc(CCN(C)C)c(OC)c(-c4c(C)cccc4C)c3)[n+]2[O-])c1 [Compound 169, 4-((3-(1,1-difluoropropyl)phenyl)carbamoyl)-2-(5-(2-(dimethylamino)ethyl)-6-methoxy-2′,6′-dimethyl-[1,1′-biphenyl]-3-yl)-5-methyl-1H-imidazole 3-oxide]	< 0.001 µM	Inactive	< 0.02 µM	–
CCC(F)(F)c1cccc(NC(=O)c2c(C)[nH]c(-c3cc(C)cc(-c4c(C)cccc4C)c3)[n+]2[O-])c1 [Compound 106, 4-((3-(1,1-difluoropropyl)phenyl)carbamoyl)-5-methyl-2-(2′,5,6′-trimethyl-[1,1′-biphenyl]-3-yl)-1H-imidazole 3-oxide]	< 0.001 µM	Inactive	> 0.05 µM	–
CCC(F)(F)c1cccc(NC(=O)c2c(C)[nH]c(-c3ccc(OC(F)F)c(-c4c(C)cccc4C)c3)[n+]2[O-])c1 [Compound 103, 2-(6-(difluoromethoxy)-2′,6′-dimethyl-[1,1′-biphenyl]-3-yl)-4-((3-(1,1-difluoropropyl)phenyl)carbamoyl)-5-methyl-1H-imidazole 3-oxide]	< 0.001 µM	Inactive	0.02 to 0.05 µM	–
COc1cc(Cl)c(-c2[nH]c(C)c(C(=O)Nc3cccc(C(F)(F)C4CC4)c3)[n+]2[O-])cc1-c1c(C)cccc1C [Compound 198, 2-(4-chloro-6-methoxy-2′,6′-dimethyl-[1,1′-biphenyl]-3-yl)-4-((3-(cyclopropyldifluoromethyl)phenyl)carbamoyl)-5-methyl-1H-imidazole 3-oxide]	< 0.001 µM	Inactive	> 0.05 µM	–
CNC(=O)c1cccc(NC(=O)c2c(C)[nH]c(-c3ccc(OC)c(-c4c(F)cccc4F)c3)[n+]2[O-])c1 [Compound 184, 2-(2′,6′-difluoro-6-methoxy-[1,1′-biphenyl]-3-yl)-5-methyl-4-((3-(methylcarbamoyl)phenyl)carbamoyl)-1H-imidazole 3-oxide]	< 0.001 µM	Inactive	< 0.02 µM	–
COc1cc(F)c(-c2[nH]c(C)c(C(=O)Nc3cccc(C(F)(F)F)c3)[n+]2[O-])cc1-c1c(F)cccc1F [Compound 207, 5-methyl-2-(2′,4,6′-trifluoro-6-methoxy-[1,1′-biphenyl]-3-yl)-4-((3-(trifluoromethyl)phenyl)carbamoyl)-1H-imidazole 3-oxide]	< 0.001 µM	Inactive	> 0.05 µM	–
CCC(F)(F)c1cccc(NC(=O)c2c(C)[nH]c(-c3ccc(OC)c(-c4c(C)cccc4C)c3)[n+]2[O-])c1 [Compound 102, 4-((3-(1,1-difluoropropyl)phenyl)carbamoyl)-2-(6-methoxy-2′,6′-dimethyl-[1,1′-biphenyl]-3-yl)-5-methyl-1H-imidazole 3-oxide]	< 0.001 µM	Inactive	< 0.02 µM	–
CCC(F)(F)c1cccc(NC(=O)c2c(C)[nH]c(-c3ccc(OC)c(-c4c(Cl)cccc4Cl)c3)[n+]2[O-])c1 [Compound 126, 2-(2′,6′-dichloro-6-methoxy-[1,1′-biphenyl]-3-yl)-4-((3-(1,1-difluoropropyl)phenyl)carbamoyl)-5-methyl-1H-imidazole 3-oxide]	< 0.001 µM	Inactive	0.02 to 0.05 µM	–
CNC(=O)c1cccc(NC(=O)c2c(C)[nH]c(-c3cc(N)cc(-c4c(C)cccc4C)c3)[n+]2[O-])c1 [Compound 180, 2-(5-amino-2′,6′-dimethyl-[1,1′-biphenyl]-3-yl)-5-methyl-4-((3-(methylcarbamoyl)phenyl)carbamoyl)-1H-imidazole 3-oxide]	< 0.001 µM	–	< 0.02 µM	> 0.03 µM
Cc1cccc(C)c1-c1cc(-c2[nH]c(C)c(C(=O)Nc3cccc(C(F)(F)C4CC4)c3)[n+]2[O-])ccc1Cl [Compound 197, 2-(6-chloro-2′,6′-dimethyl-[1,1′-biphenyl]-3-yl)-4-((3-(cyclopropyldifluoromethyl)phenyl)carbamoyl)-5-methyl-1H-imidazole 3-oxide]	< 0.001 µM	Inactive	> 0.05 µM	–
CCC(F)(F)c1cccc(NC(=O)c2c(C)[nH]c(-c3cccc(-c4ncncc4C)c3)[n+]2[O-])c1 [Compound 109, 4-((3-(1,1-difluoropropyl)phenyl)carbamoyl)-5-methyl-2-(3-(5-methylpyrimidin-4-yl)phenyl)-1H-imidazole 3-oxide]	< 0.001 µM	Inactive	< 0.02 µM	–
CCC(F)(F)c1cccc(NC(=O)c2c(C)[nH]c(-c3cccc(-c4c(C)cnnc4C)c3)[n+]2[O-])c1 [Compound 116, 4-((3-(1,1-difluoropropyl)phenyl)carbamoyl)-2-(3-(3,5-dimethylpyridazin-4-yl)phenyl)-5-methyl-1H-imidazole 3-oxide]	< 0.001 µM	Inactive	< 0.02 µM	–
